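48-hour exposure; five concentrations; linearly interpolated endpoints. Abbreviation: GI50, concentration required for 50% inhibition of growth. The concentration for full growth arrest is given as TGI.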
Key:
Test in all cases: inhibition of tumour cell growth, NCI panel, 48 h
NCI-H23 lung = test system: NCI-H23 lung
NCI/ADR-RES ovarian = test system: NCI/ADR-RES ovarian
SF-295 CNS = test system: SF-295 CNS
SK-MEL-5 melanoma = test system: SK-MEL-5 melanoma
NCI-H522 lung = test system: NCI-H522 lung
ACHN renal = test system: ACHN renal
SNB-19 CNS = test system: SNB-19 CNS
SK-MEL-28 melanoma = test system: SK-MEL-28 melanoma

Structure (SMILES) | GI50 (NCI-H23 lung) | TGI (NCI-H23 lung) | GI50 (NCI/ADR-RES ovarian) | TGI (NCI/ADR-RES ovarian) | GI50 (SF-295 CNS) | TGI (SF-295 CNS) | GI50 (SK-MEL-5 melanoma) | TGI (SK-MEL-5 melanoma) | GI50 (NCI-H522 lung) | GI50 (ACHN renal) | TGI (ACHN renal) | GI50 (SNB-19 CNS) | TGI (SNB-19 CNS) | GI50 (SK-MEL-28 melanoma) | TGI (SK-MEL-28 melanoma) | TGI (NCI-H522 lung)
C=CCN1CC(=O)N2[C@@H](Cc3ccc(O)cc3F)C(=O)N(Cc3cccc(N4CC(N5CCN(CC)CC5)C4)n3)C[C@@H]2N1C(=O)NCc1ccccc1 | 0.0756 µM | > 100 µM | 2.19 µM | 32.8 µM | 0.0965 µM | 1.02 µM | 0.0703 µM | 0.33 µM | 0.0284 µM | 0.393 µM | > 100 µM | 0.0324 µM | > 100 µM | 0.0405 µM | > 100 µM | 
COC(=O)c1cc2c(cc1Cl)SC1=NN(C)C(N(C)C)N1S2(=O)=O (stereo not given) | > 100 µM | > 100 µM | > 100 µM | > 100 µM | > 100 µM | > 100 µM | > 100 µM | > 100 µM | > 100 µM | > 100 µM | > 100 µM | > 100 µM | > 100 µM | > 100 µM | > 100 µM | > 100 µM
Cc1cc(C)nc(SC2=C(Nc3cc(Cl)ccc3O)C(=O)N(Cc3ccccc3)C2=O)n1 | 113 µM | > 160 µM | > 160 µM | > 160 µM | 36.8 µM | > 160 µM | 38.9 µM | > 160 µM | 17.4 µM | 43.5 µM | > 160 µM | > 160 µM | > 160 µM | 42.3 µM | 148 µM | > 160 µM
CCc1cccc(C)c1NC(=O)c1sc2nc3c(cc2c1N)C(=O)CCC3 | 0.732 µM | > 100 µM | 0.768 µM | > 100 µM | 0.299 µM | > 100 µM | 0.353 µM | 5.89 µM | 0.234 µM | 0.872 µM | > 100 µM | 0.918 µM | > 100 µM | 1.09 µM | > 100 µM | 3.82 µM
O=C(O)c1cccc(C(=O)O)c1S(=O)Cc1ccccc1 (stereo not given) |  | > 100 µM |  | > 100 µM |  | > 100 µM |  | > 100 µM |  |  | > 100 µM |  | > 100 µM |  | > 100 µM | > 100 µM
COc1ccc(/C=C(\C#N)n2nnc3c(F)cccc32)cc1 | 0.508 µM | 12.5 µM | 0.181 µM | 4.52 µM | 0.275 µM | 2.72 µM | 0.47 µM | > 33.7 µM | 0.182 µM | 0.689 µM | > 51.6 µM | 0.412 µM | 18.2 µM | 1.28 µM | > 100 µM | 
Cc1ccc(/C(C#N)=C/c2cccc([N+](=O)[O-])c2)cc1 |  | > 100 µM |  | > 100 µM |  | 67.3 µM |  | > 100 µM |  |  | > 100 µM |  | > 100 µM |  | > 100 µM | > 100 µM
COC(=O)c1cncc(/C=C/c2c(C)cc(O)cc2C)c1 | 10.5 µM | > 25 µM | 7.3 µM | > 25 µM | > 19.1 µM | > 25 µM | 6.78 µM | > 16.9 µM | 5.67 µM | > 21.5 µM | > 25 µM | > 21.9 µM | > 25 µM | > 12.7 µM | 24.8 µM | 17.1 µM

— PubChem BioAssay (NCI)
